Measurements as given in US20110230471A1, “BENZONAPHTYRIDINE COMPOUNDS AS INHIBITORS OF AUTOTAXIN” (MERCK PATENT GESELLSCHAFT MIT BESCHRANKTER HAFTUNG, priority 2008, published 2011).

Biological target: T1, recombinant autotaxin (Homo sapiens, UniProt Q13822)
T1 construct: made in house; host or cells: Hi5 insect cells (baculovirus)
Experiment: Autotaxin test (enzyme test), Amplex Red
Format: biochemical
Conditions: Autotaxin inhibition (enzyme test), TABLE 2 (B compounds); substrate LPC 75 μM
Method in brief: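 Compound pre-incubated 30 min at 22° C with 16 ng baculovirus (Hi5)-expressed autotaxin, then LPC added (75 μM final) for 90 min at 37° C. Choline released detected via choline oxidase/peroxidase/Amplex Red coupling; resorufin fluorescence (ex 485, em 612 nm) read in kinetic mode, Tris buffer pH 7.9 with 0.1% lipid-free BSA.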

Row | SMILES | IC50
1 | COc1c(F)cc(-c2ccc(N)cc2)cc1NC(=O)CN1CCc2nc3ccccc3c(C(=O)N3CCOCC3)c2C1 [Compound B35, N-(4′-Amino-5-fluoro-4-methoxybiphenyl-3-yl)-2-[10-(morpholine-4-carbonyl)-3,4-dihydro-1H-benzo[b][1,6]naphthyridin-2-yl]acetamide] | > 1000 nM
2 | CN1CCC(NC(=O)c2c3c(nc4ccccc24)CCN(CCC(=O)Nc2cc(Cl)ccc2N)C3)CC1 [Compound B37] | > 1000 nM
3 | COc1ccc(Cl)cc1/C=C/C(=O)N1CCc2nc3ccccc3c(C(=O)NC3CCN(C)CC3)c2C1 [Compound B40, N-(1-Methylpiperidin-4-yl)-2-[(E)-3-(5-chloro-2-methoxyphenyl)acryloyl]-1,2,3,4-tetrahydrobenzo[b][1,6]naphthyridine-10-carboxamide] | > 1000 nM
4 | COc1ccc(Cl)cc1NC(=O)CN1CCc2nc3ccccc3c(C(=O)NCCF)c2C1 [Compound B42, N-(2-Fluoroethyl)-2-[(5-chloro-2-methoxyphenylcarbamoyl)methyl]-1,2,3,4-tetrahydrobenzo[b][1,6]naphthyridine-10-carboxamide] | > 1000 nM
5 | O=C(c1c2c(nc3ccccc13)CCN(Cc1ccnc(Cl)c1)C2)N1CCOCC1 [Compound B52, [2-(2-Chloropyridin-4-ylmethyl)-1,2,3,4-tetrahydrobenzo[b][1,6]naphthyridin-10-yl]morpholin-4-ylmethanone] | > 1000 nM
6 | CN1CCC(NC(=O)c2c3c(nc4ccccc24)CCN(Cc2ccc4c(Cl)cc(Cl)c(O)c4n2)C3)CC1 [Compound B57, N-(1-Methylpiperidin-4-yl)-2-(5,7-dichloro-8-hydroxyquinolin-2-ylmethyl)-1,2,3,4-tetrahydrobenzo[b][1,6]naphthyridine-10-carboxamide] | > 1000 nM

Now from value to compound:

Row | IC50 | SMILES
7 | 100 to 1000 nM | COc1ccc(Cl)cc1NC(=O)CN1CCc2nc3ccccc3c(C(=O)NC3CCOCC3)c2C1 [Compound B43, N-(Tetrahydropyran-4-yl)-2-[(5-chloro-2-methoxyphenylcarbamoyl)methyl]-1,2,3,4-tetrahydrobenzo[b][1,6]naphthyridine-10-carboxamide]
8 | 100 to 1000 nM | COc1ccc(Cl)cc1NC(=O)CN1CCc2nc3ccccc3c(C(=O)NC3CCCNC3=O)c2C1 (stereo not drawn) [Compound B47, N-(2-Oxopiperidin-3-yl)-2-[(5-chloro-2-methoxyphenylcarbamoyl)methyl]-1,2,3,4-tetrahydrobenzo[b][1,6]naphthyridine-10-carboxamide]
9 | > 1000 nM | COc1ccc(Cl)cc1NC(=O)CN1CCc2nc3ccccc3c(C(=O)NC3CCCNC3)c2C1 (stereo not drawn) [Compound B53, N-Piperidin-3-yl-2-[(5-chloro-2-methoxyphenylcarbamoyl)methyl]-1,2,3,4-tetrahydrobenzo[b][1,6]naphthyridine-10-carboxamide]
